Measured values published in ChEMBL document CHEMBL5233248, “Resveratrol - A comprehensive review of recent advances in anticancer drug design and development” (Eur J Med Chem, 2020).
Values joined by “and” are separate entries in the source; they are usually repeats but may differ in a detail not shown here. Equal entries are not always repeated.

Key:
[1] = Anticancer activity against Lung adenocarcinoma cell line assessed as cell growth inhibition measured after 72 hrs by MTT assay; assay type: functional, cell-based
HeLa [2] = test: Anticancer activity against human HeLa cells assessed as cell growth inhibition measured after 72 hrs by MTT assay; assay type: functional, cell-based; conditions: read-out: IC50
A549 [3] = test: Potency index, ratio of test compound IC50 to Resveratrol IC50 for antiproliferative activity against human A549 cells; assay type: functional
A549 [4] = test: Anticancer activity against human A549 cells assessed as cell growth inhibition measured after 72 hrs by MTT assay; assay type: functional, cell-based
CYP1A = CYP1A (Homo sapiens, UniProt P04798+P05177); test: Inhibtion of CYP1A (unknown origin); assay type: ADME, protein assay
SK-OV-3 [5] = test: Anticancer activity against human SK-OV-3 cells assessed as cell growth inhibition incubated for 24 hrs […] by MTT assay; assay type: functional, cell-based; conditions: SK-OV-3, 24 h
[6] = Cytotoxicity against human MCF-10A cells assessed as cell growth inhibition incubated for 24 hrs by MTT assay; assay type: toxicity, cell-based
HT-29 [7] = test: Anticancer activity against human HT-29 cells assessed as cell growth inhibition incubated for 3 days by MTT assay; assay type: functional, cell-based; conditions: HT-29, 72 h
[8] = Growth inhibition of human leukaemia cell line; assay type: functional
[9] = Cytotoxicity activity against human CCD-1059Sk cells assessed as cell growth inhibition incubated for 48 hrs by MTS assay; assay type: toxicity, cell-based
[10] = Cytotoxicity against mouse NIH3T3 cells assessed as cell growth inhibition by CyQuant assay; assay type: toxicity, cell-based
Capan-2 = test: Anticancer activity against human Capan-2 cells assessed as cell growth inhibition incubated for 72 hrs by MTT assay; assay type: functional, cell-based; conditions: Capan-2, 72 h
A2780 [11] = test: Anticancer activity against human A2780 cells assessed as cell growth inhibition incubated for 24 hrs […] by MTT assay; assay type: functional, cell-based; conditions: A2780, 24 h
SK-OV-3 [12] = test: Anticancer activity against human SK-OV-3 assessed as cell growth inhibition incubated for 72 hrs by MTT assay; assay type: functional, cell-based; conditions: SK-OV-3, 72 h
HepG2 [13] = test: cells; conditions: Homo sapiens, HepG2, 48 h
Description: Anti cancer activity against human HepG2 cell assessed as cell growth inhibition incubated for 48 hrs by Brdu assay

HEK293 = test: Anticancer activity against human HEK293 cells assessed as cell growth inhibition incubated for 3 days by MTT assay; assay type: functional, cell-based; conditions: HEK293, 72 h
PANC-1 = test: Anticancer activity against human PANC-1 cells assessed as cell growth inhibition by CyQuant assay; assay type: functional, cell-based
[14] = Anticancer activity against human Peritoneal mesothelial cells assessed as cell growth inhibition by LDH release assay; assay type: functional, cell-based
HL-60 = test: Anticancer activity against human HL-60 cells assessed as cell growth inhibition incubated for 48 hrs by MTT assay; assay type: functional, cell-based; conditions: HL-60, 48 h
A-431 = test: Anticancer activity against human A-431 cells assessed as reduction of cell viability incubated for 48 hrs by MTT assay; assay type: functional, cell-based; conditions: A-431, 48 h
HT-29 [15] = test: Anticancer activity against human HT-29 cells assessed as cell growth inhibition incubated for 24 hrs by MTT assay; assay type: functional, cell-based; conditions: Homo sapiens, HT-29, 24 h
SK-BR-3 = test: Anticancer activity against human SK-BR-3 cells assessed as cell growth inhibition incubated for 24 hrs by MTT assay; assay type: functional, cell-based; conditions: SK-BR-3, 24 h
Renal cancer cell line = test: Growth inhibition of human Renal cancer cell line; assay type: functional
MCF7 [16] = test: Anticancer activity against human MCF7 cells assessed as cell growth inhibition incubated for 48 hrs by MTS assay; assay type: functional, cell-based; conditions: MCF7, 48 h
Ishikawa = test: cells; conditions: Homo sapiens
Description: Anti-tumor activity against human ishikawa cells assessed as anti-estrogenic potential

U-251 = test: Anticancer activity against human U-251MG cells assessed as cell growth inhibition by CyQuant assay; assay type: functional, cell-based
MDA-MB-231 [17] = test: Anticancer activity against human MDA-MB-231 cells assessed as cell growth inhibition by CyQuant assay; assay type: functional, cell-based
HeLa [18] = test: Anticancer activity against human HeLa cells assessed as cell growth inhibition incubated for 48 hrs by MTT assay; assay type: functional, cell-based
ASPC1 = test: Anticancer activity against human ASPC1 cells assessed as cell growth inhibition incubated for 72 hrs by MTT assay; assay type: functional, cell-based; conditions: ASPC1, 72 h
MCF-12A = test: Anticancer activity against human MCF-12A cells assessed as reduction of cell viability incubated for 48 hrs by MTT assay; assay type: functional, cell-based
MCF7 [19] = test: Anticancer activity against human MCF7 cells assessed as cell growth inhibition by CyQuant assay; assay type: functional, cell-based
HT-29 [20] = test: cells; conditions: Homo sapiens, HT-29, 48 h
Description: Anti cancer activity against human HT-29 cell assessed as cell growth inhibition incubated for 48 hrs by Brdu assay

HCT-116 [21] = test: Anticancer activity against human HCT-116 cells assessed as cell growth inhibition incubated for 5 days by SRB assay; assay type: functional, cell-based; conditions: HCT-116, 120 h
OVCAR-3 = test: Anticancer activity against human OVCAR-3 cells assessed as cell growth inhibition incubated for 24 hrs […] by MTT assay; assay type: functional, cell-based; conditions: OVCAR-3, 24 h
HepG2 [22] = test: Anticancer activity against human HepG2 cells assessed as cell growth inhibition incubated for 3 days by MTT assay; assay type: functional, cell-based; conditions: HepG2, 72 h
[23] = Cytotoxicity activity against human CCD-1059Sk cells assessed as cell growth inhibition incubated for 48 hrs in presence of Curcumin by MTS assay; assay type: toxicity, cell-based
MCF7 [24] = test: Anticancer activity against human MCF7 cells assessed as cell growth inhibition incubated for 3 days by MTT assay; assay type: functional, cell-based; conditions: MCF7, 72 h
HaCaT = test: Anticancer activity against human HaCaT cells assessed as reduction of cell viability incubated for 48 hrs by MTT assay; assay type: functional, cell-based
HeLa [25] = test: Anticancer activity against human HeLa cells assessed as cell growth inhibition; assay type: functional, cell-based
MCF7 [26] = test: cells; conditions: Homo sapiens, MCF7, 48 h
Description: Anticancer activity against human MCF7 cells assessed as cell growth inhibition incubated for 48 hrs in presence of Curcumin by MTS assay

MDA-MB-231 [27] = test: Anticancer activity against human MDA-MB-231 cells assessed as cell growth inhibition incubated for 24 hrs by MTT assay; assay type: functional, cell-based; conditions: MDA-MB-231, 24 h
MCF7 [28] = test: Anticancer activity against human MCF7 cells assessed as reduction of cell viability incubated for 48 hrs by MTT assay; assay type: functional, cell-based; conditions: MCF7, 48 h
MCF7 [29] = test: Anticancer activity against human MCF7 cells assessed as cell growth inhibition incubated for 24 hrs by MTT assay; assay type: functional, cell-based; conditions: MCF7, 24 h
Caco-2 = test: cells; conditions: Homo sapiens, Caco-2, 48 h
Description: Anti cancer activity against human Caco-2 cell assessed as cell growth inhibition incubated for 48 hrs by Brdu assay

[30] = Anticancer activity against human Peritoneal mesothelial cells assessed as cell growth inhibition incubated for 24 hrs […] by MTT assay; assay type: functional, cell-based
[31] = Anticancer activity against human HOSE cells assessed as cell growth inhibition incubated for 24 hrs […] by MTT assay; assay type: functional, cell-based
MDA-MB-231 [32] = test: Anticancer activity against human MDA-MB-231 cells assessed as reduction in cell viability measured after 48 hrs at 150 uM by MTT assay relative to control; assay type: functional
HCT-116 [33] = test: Anticancer activity against human HCT-116 cells assessed as cell growth inhibition; assay type: functional, cell-based
A2780 [34] = test: Anticancer activity against human A2780 cells assessed as cell growth inhibition by LDH release assay; assay type: functional, cell-based
BXPC-3 = test: Anticancer activity against human BXPC-3 cells assessed as cell growth inhibition incubated for 72 hrs by MTT assay; assay type: functional, cell-based; conditions: BXPC-3, 72 h
[35] = Anticancer activity against human AZ-AHR cells assessed as cell growth inhibition incubate for 24 hrs by MTT assay; assay type: functional, cell-based
[36] = Anticancer activity against human HOSE cells assessed as cell growth inhibition by LDH release assay; assay type: functional, cell-based
HepG2 [37] = test: Anticancer activity against human HepG2 cells assessed as cell growth inhibition incubated for 24 hrs by MTT assay; assay type: functional, cell-based; conditions: HepG2, 24 h
[38] = Selectivity ratio of IC50 for human MCF7 cells to IC50 for human MDA-MB-231 cells; assay type: toxicity
[39] = Selectivity ratio of IC50 for human MDA-MB-231 cells to IC50 for human MCF7 cells

O=S(=O)(Oc1cc(O)cc(/C=C/c2ccc(O)cc2)c1)c1ccccc1
IC50 ([1]; Lung adenocarcinoma cell line, 72 h): 10.2 µM | IC50 (HeLa [2]; Homo sapiens, HeLa, 72 h): 8.16 µM | Ratio IC50 (A549 [3]): 15 | IC50 (A549 [4]; Homo sapiens, A549, 72 h): 4.38 µM

Oc1ccc(/C=C/c2cc(O)cc(O)c2)cc1 [RESVERATROL]
IC50 (CYP1A): 0.23 µM | IC50 (SK-OV-3 [5]): 380 µM | IC50 at 24 h [6]: > 100 µM | IC50 (HT-29 [7]): 70 µM | GI50 [8]: 15.9 µM | IC50 at 48 h [9]: 188 µM | IC50 [10]: > 20 µM | IC50 (Capan-2): 26.5 µM | IC50 (A2780 [11]): 48 µM | IC50 (SK-OV-3 [12]): 48 µM | IC50 (HepG2 [13]): 111 µM | IC50 (HEK293): 12 µM | IC50 (PANC-1): 70 µM | IC50 ([1]; lung adenocarcinoma cell line): 10.5 µM and 24.9 µM | IC50 [14]: 495 µM | IC50 (HL-60): 64.1 µM | IC50 (A-431): 49.4 µM | IC50 (HT-29 [15]): 130 µM | IC50 (SK-BR-3): 110 µM | GI50 (Renal cancer cell line): 15.9 µM | IC50 (MCF7 [16]): 40.5 µM | IC50 (Ishikawa): 3.4 µM | IC50 (HeLa [2]; hela): 98.2 µM and 10.5 µM | IC50 (U-251): > 50 µM | IC50 (MDA-MB-231 [17]): 40 µM | IC50 (HeLa [18]): 152 µM | IC50 (ASPC1): 25 µM | IC50 (MCF-12A): 93.5 µM | IC50 (MCF7 [19]): 68.3 µM | IC50 (HT-29 [20]): 1120 µM | IC50 (HCT-116 [21]): 31 µM | IC50 (OVCAR-3): 480 µM | IC50 (HepG2 [22]): 355 µM | IC50 at 48 h [23]: 83.1 µM | IC50 (MCF7 [24]): 127 µM | IC50 (HaCaT): 85.2 µM | IC50 (HeLa [25]): 137 µM | IC50 (MCF7 [26]): 61.7 µM | IC50 (MDA-MB-231 [27]): 90.6 µM | IC50 (MCF7 [28]): 24.6 µM | IC50 (A549 [4]; a549): 66.2 µM and 10.5 µM | IC50 (MCF7 [29]): 88.2 µM | IC50 (Caco-2): 190 µM | IC50 [30]: 465 µM | IC50 [31]: 485 µM | Activity (MDA-MB-231 [32]): 58.45% | IC50 (HCT-116 [33]): 19.4 µM | IC50 (A2780 [34]): 65 µM | IC50 (BXPC-3): 28 µM | IC50 [35]: 19.4 µM | IC50 [36]: 421 µM | IC50 (HepG2 [37]): 54.9 µM

Oc1ccc(-c2ccc3cc(O)ccc3c2)c(O)c1
IC50 at 24 h [6]: > 100 µM | Ratio IC50 [38]: 3.3 | Ratio IC50 [39]: 1.9 | IC50 (MDA-MB-231 [27]): 48.2 µM | IC50 (MCF7 [29]): 26.3 µM
